Holding throughout (type): in vivo
One assay deals with Aphis gossypii. Put plainly: Efficacy test against Aphis gossypii (Test Example 2). Conditions: 144 h, sprayed on cucumber plants with nymphs, 6 days after spraying, read-out: Insect mortality rate. How it is done:
(§1) 5 parts of the compound of the present invention, 93.6 parts of dimethylformamide and 1.4 parts of polyoxyethylene alkyl aryl ether were mixed and dissolved to prepare Emulsion (I) including 5% of an active ingredient. For the control, Emulsion (II) was prepared by mixing and dissolving 93.6 parts of dimethylformamide and 1.4 parts of polyoxyethylene alkyl aryl ether.
(§2) An insect mortality rate was calculated by the numerical equation shown below.
(§3) Insect mortality rate (%)={(Number of dead insects)/(Number of sample insects)}×100
Cucumber seedlings were inoculated with nymphs of Aphis gossypii. Emulsion (I) was diluted with water so that the concentration of the compound of the present invention was 125 ppm. Subsequently, the aforementioned diluted liquid was sprayed on the cucumber plants on which the nymphs of Aphis gossypii were parasitic. The aforementioned cucumber plants were then placed in a thermostatic chamber with a temperature of 25° C. and humidity of 60%. Mortality was investigated 6 days after spraying was carried out, and the insect mortality rate of Aphis gossypii was calculated.

The subject of another assay is Mythimna separata. Put plainly: Efficacy test against Mythimna separata (Test Example 1). Conditions: 144 h, corn leaves soaked, second-instar larvae, 6 days after inoculation, read-out: Insect mortality rate. How it is done:
as §1, §2, §3
(Test Example 1) Efficacy Test against Mythimna separata Emulsion (I) was diluted with water so that the concentration of the compound of the present invention was 125 ppm. Corn leaves were soaked in the diluted liquid for 30 seconds. Subsequently, the corn leaves were put on Petri dishes, followed by inoculating 5 second-instar larvae of Mythimna separata. The Petri dishes were placed in a thermostatic chamber at a temperature of 25° C. and humidity of 60%. Mortality was investigated 6 days after inoculation, and the insect mortality rate was calculated.

In another assay the test system is Thrips palmi. Put plainly: Efficacy test against Thrips palmi, spray on cucumber seedlings (Test Example 3). Particulars: 168 h, sprayed on cucumber seedlings, 7 days after spraying, read-out: controlling rate. Here is the method:
as §1
Cucumber seedlings were inoculated with 8 adults of Thrips palmi. Emulsion (I) was diluted with water so that the concentration of the compound of the present invention was 125 ppm. Subsequently, the aforementioned diluted liquid was sprayed on the cucumber seedlings, and then air dried. The number of the parasitic larvae was counted 7 days after spraying. The efficacy of the compounds was evaluated by the controlling rate described below.
Controlling rate (%)={1−(Nt)/(Nc)}×100
In which Nt: number of parasites at the legion spray-treated. • Nc: number of parasites at the legion non-treated (control).

Among the data in patent US20200170254A1, “OXADIAZOLINE COMPOUND AND FORMULATION FOR CONTROLLING HARMFUL ORGANISMS” (Nippon Soda Co., Ltd., priority 2017, published 2020) are mortality and pest or weed control values, retold here.

Take `CN1OC2(CC(c3ccccc3)c3ccccc32)N=C1NC(C)(C)C` (stereo not drawn) [a-25]: the mortality at 125 ppm in the assay on Aphis gossypii and in the assay on Mythimna separata was at least 80% each time. Also, the pest or weed control at 125 ppm in the assay with Thrips palmi is at least 80%.
For `CCN(C1=NC2(ON1C)c1ccccc1COc1ccccc12)C(C)(C)C` (stereo not drawn) [a-10], the mortality at 125 ppm with Aphis gossypii and in the assay with Mythimna separata was at least 80% throughout. In addition, in the assay with Thrips palmi, the pest or weed control at 125 ppm is at least 80%.
`CC(C)(C)NC1=NC2(CCCc3ccccc32)ON1N` (stereo not drawn) [a-21]: the mortality (commonly the percentage killed) at 125 ppm in the assay with Aphis gossypii is at least 80%.
With `CN1OC2(N=C1NC(C)(C)C)c1ccccc1C=Cc1ccccc12` [a-19], in the assay on Mythimna separata, the mortality at 125 ppm was at least 80%.
In the case of `CN1OC2(N=C1N(C)C(C)(C)C)c1ccccc1CCc1sc(Cl)cc12` (stereo not drawn) [a-37], the pest or weed control at 125 ppm with Thrips palmi is at least 80%.
For `CCN(C1=NC2(ON1N)c1ccccc1CCc1sc(Cl)cc12)C(C)(C)C` (stereo not drawn) [a-38], in the assay on Thrips palmi, the pest or weed control at 125 ppm is at least 80%.
With `CN1OC2(N=C1N(C)C(C)(C)C)c1ccccc1C=Cc1ccccc12` [a-17], in the assay with Thrips palmi, the pest or weed control at 125 ppm is at least 80%.
The same measure, in the same setting: next, `Cc1cc2c(s1)CCc1ccccc1C21N=C(NC(C)(C)C)N(C)O1` (stereo not drawn) [a-31]: at least 80%.
For `CN1OC2(CCCOc3ccccc32)N=C1NC(C)(C)C` (stereo not drawn) [a-26], the mortality at 125 ppm with Aphis gossypii is at least 80%.
With `CN1OC2(N=C1NC(C)(C)C)c1ccc(Cl)cc1OCCC2c1ccccc1` (stereo not drawn) [a-29], in the assay with Mythimna separata, the mortality at 125 ppm is at least 80%.
Regarding `CN1OC2(N=C1NC(C)(C)C)c1ccccc1COc1ccccc12` (stereo not drawn) [a-11, N-(tert-butyl)-2′-methyl-2′H,6H-spiro[dibenzo[b,e]oxepine-11,5′-[1,2,4]oxadiazol]-3′-amine], the mortality at 125 ppm in the assay with Mythimna separata is at least 80%. For the same compound, the pest or weed control at 125 ppm in the assay on Thrips palmi was at least 80%.
In the case of `CN1OC2(Cc3ccccc3Oc3ccccc32)N=C1NC(C)(C)C` (stereo not drawn) [a-22, N-(tert-butyl)-2′-methyl-2′H, 11H-spiro[dibenzo[b,f]oxepine-10,5′-[1,2,4]oxadiazol]-3′-amine], in the assay with Thrips palmi, the pest or weed control at 125 ppm was at least 80%.
Regarding `CC1CCOc2cc(Cl)ccc2C12N=C(NC(C)(C)C)N(N)O2` (stereo not drawn) [a-30], the mortality at 125 ppm in the assay with Mythimna separata is at least 80%.
On to `CN(C1=NC2(ON1N)c1ccccc1CCc1ccccc12)C(C)(C)C` [a-35], for which the pest or weed control at 125 ppm in the assay with Thrips palmi was at least 80%.
As to `CC(C)(C)NC1=NC2(CCc3ccccc32)ON1N` (stereo not drawn) [a-24], the mortality at 125 ppm with Aphis gossypii is at least 80%.
Same read-out and setting: with `CN1OC2(N=C1NC(C)(C)C)c1ccccc1CCCc1ccccc12` [Compound A-1] the figure was at least 80%; with `CN1OC2(N=C1N(C)C(C)(C)C)c1ccccc1CCCc1ccccc12` [Compound A-2], at least 80%.
For `CN1OC2(N=C1N(C)C(C)(C)C)c1ccccc1CCc1sccc12` (stereo not drawn) [a-36], the pest or weed control at 125 ppm in the assay with Thrips palmi was at least 80%.
In the case of `CN1OC2(CC(C)(C)Oc3ccc(F)cc32)N=C1NC(C)(C)C` (stereo not drawn) [a-20, N-(tert-butyl)-6-fluoro-2,2,2′-trimethyl-2′H-spiro [chromane-4,5′-[1,2,4]oxadiazol]-3′-amine], the mortality at 125 ppm with Aphis gossypii and with Mythimna separata was at least 80% in each case.
In the case of `CN1OC2(N=C1N(C)C(C)(C)C)c1ccccc1COc1ccccc12` (stereo not drawn) [a-23], the pest or weed control at 125 ppm in the assay with Thrips palmi is at least 80%.
Consider `CCN(C1=NC2(ON1N)c1ccccc1C=Cc1ccccc12)C(C)(C)C` [a-18], for which the mortality at 125 ppm with Mythimna separata was at least 80%.
